Experimental data published in patent publication US11766397B2, “Bioactive compositions comprising ficus serum fracton and methods to reduce the appearance of skin hyperpigmentation” (ISP INVESTMENTS LLC, priority 2010, dated 2023).

Test system: facial hyperpigmented spots in humans
Assay: In vivo testing for hyperpigmented spot reduction and melanin evenness (split face, vehicle controlled)
Design: species or system human
Settings: for Melanin Evenness vs Vehicle / NC2SAF (spot area fraction) vs Vehicle: twice daily facial application
Procedure: A 9 week in-vivo study was conducted using a round robin, vehicle controlled, split face design including a 1 week normalization period with 270 subjects. The 270 subjects were screened according to inclusion/exclusion criteria which included the following:
• Has hyperpigmented spots around cheek and/or periorbital area on both sides of the face. • Has at least 1 hyperpigmented spot of 8-10 mm diameter, 4 spots of 4-6 mm or 10 spots of 2-3 mm diameter (sun spots., freckles, or melasma spots) or • equivalent spot area in the cheek area on each side of their face. • Is willing to refrain from sun exposure by using supplied UV lotion and physical UV blocks, such as a hat, to avoid facial sunburn, tanning or wind burn.
• Has been diagnosed as having atopy, eczema, psoriasis, or other chronic skin diseases. • Has obvious signs of facial skin disease (e.g., more than 5 pimples, areas of red scaling skin, superficial thin blood vessels, etc.). • Has significant areas of discoloration or scarring on the face. • Has more than 3 prominent moles (<3 mm) on the face.
Two hundred and seventy subjects were recruited for the study. Approximately 60 subjects dropped during the course of the study. Each subject received two coded test formulations for twice daily application to each half of the face. Images of the facial treatment sites were captured at baseline (week 0), and after 4 and 8 weeks of treatment and analyzed for changes to skin color and spot size and color. The product formulations included a vehicle control, the Vehicle+0.55% FSF, and the vehicle+5% vitamin B3 compound (Niacinamide).
Noncontact spectrophotometric intracutaneous analysis (SiaScopy, Astron Clinica, UK) was used to collect and analyze the subject images. The method used a digital camera (e.g., Fuji S2 digital SLR) as a […] and a flash lighting source (e.g., Sigma Super flash light source) to recover facial chromophore information. A cross polarized filter was placed in front of the camera and the lighting source to eliminate specular reflection.
Chromophore mapping of the concentration and distribution of eumelanin (melanin) and oxyhaemoglobin produces grayscale concentration maps of each of these chromophores. Image analysis software, such as Optimas 6.5, can be used to select a region of interest in each chromophore map from which mean grayscale values and spot area fraction are calculated. Spot area fraction refers to total area occupied by melanin spots as a percentage of the whole region of interest. A description of one type of chromophore mapping can be found in EP 1,810,614 and “The Distribution of Melanin in Skin Determined In Vivo”, British Journal of Dermatology, 2007, pp 620-628.

In the case of `NC(=O)c1cccnc1` [Niacinamide], the “Melanin Evenness vs Vehicle” value (4 weeks) is reported as “ns (ns = not significant (p > 0.3))”, the “NC2SAF (spot area fraction) vs Vehicle” value (4 weeks) is reported as “as” and the “Melanin Evenness vs Vehicle” value (8 weeks) is reported as “sig (sig = significant (p < 0.1))”. The “NC2SAF (spot area fraction) vs Vehicle” value (8 weeks) was “sig (sig = significant (p < 0.1))” and the reducing hyperpigmented spots (After 8 weeks) was “best performer”.
